From patent US20030040506A1 (priority 2002, published 2003)

Assay: Acid stability (acid-mediated hydrolytic decomposition, simulated stomach conditions)
Format: physicochemical
Conditions: pH 1, 25° C.; for Compound left (%): 0.3 mg/mL in dilute hydrochloric acid, HPLC
Description: Compounds were tested for their stability towards acid-mediated hydrolytic decomposition employing a test designed to simulate stomach conditions. Each compound was incubated at an initial concentration of 0.3 mg/mL in dilute hydrochloric acid at pH 1 for 24 hours at 25° C. HPLC was run immediately for t=0 and at intervals up to approximately 24 hours. The results for compounds of Example 2, part b, Example 9, and for comparative phosphoramidates of 2′,3′-dideoxy-adenosine (Compound 1093) and 2′,3′-didehydro-2′,3′-dideoxy-adenosine (Compound 1001), described in PCT/GB96/00580, are given in the table below.

SMILES: COC(=O)C(C)(C)NP(=O)(OC[C@@H]1C=C[C@H](n2cnc3c(NCC4CC4)nc(N)nc32)C1)Oc1ccccc1 (relative stereo) [Example 9]
- Compound left (%) (Time 0 hr): 100%
- Compound left (%) (Time 13 hr): 96%
- Compound left (%) (Time 24 hr): 94%
- Acid stability in words (after 24 hours, dilute hydrochloric acid): remained intact
